These results are taken from ChEMBL document CHEMBL5465560, “Selectivity Literature for EUbOPEN Chemogenomic Library” (2024).

In experiment [1] the target is T1, Serine/threonine-protein kinase DCLK1 (Homo sapiens) (UniProt O15075).
T1 sequence (whole entry): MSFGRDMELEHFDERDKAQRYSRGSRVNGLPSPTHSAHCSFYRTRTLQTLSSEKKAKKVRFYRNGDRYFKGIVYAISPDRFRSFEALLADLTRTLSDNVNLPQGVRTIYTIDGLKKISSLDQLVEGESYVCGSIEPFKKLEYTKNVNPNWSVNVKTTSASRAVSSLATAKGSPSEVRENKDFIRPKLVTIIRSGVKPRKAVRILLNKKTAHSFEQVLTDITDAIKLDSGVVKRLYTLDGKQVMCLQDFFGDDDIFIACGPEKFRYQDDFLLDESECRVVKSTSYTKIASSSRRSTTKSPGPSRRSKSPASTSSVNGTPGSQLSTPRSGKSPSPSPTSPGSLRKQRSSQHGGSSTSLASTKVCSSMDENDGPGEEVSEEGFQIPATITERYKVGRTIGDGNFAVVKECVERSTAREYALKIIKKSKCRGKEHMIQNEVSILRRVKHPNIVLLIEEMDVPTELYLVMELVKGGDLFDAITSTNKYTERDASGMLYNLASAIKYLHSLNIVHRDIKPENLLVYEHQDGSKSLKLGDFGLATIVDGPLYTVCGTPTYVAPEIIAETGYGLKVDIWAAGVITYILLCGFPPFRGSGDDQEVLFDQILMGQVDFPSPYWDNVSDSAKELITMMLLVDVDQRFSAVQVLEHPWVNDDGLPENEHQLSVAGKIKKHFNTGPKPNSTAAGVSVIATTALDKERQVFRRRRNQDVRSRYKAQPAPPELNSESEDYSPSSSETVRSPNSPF
Nature of the experiment: Selectivity interaction (KinomeScan (DiscoverX)) EUB0001049a DCLK1. The following applies: at 1 µM.

The target of experiment [2] is Myosin-IIIa (Homo sapiens) (UniProt Q8NEV4). Put plainly: Selectivity interaction (KinomeScan (DiscoverX)) EUB0000655a MYO3A. The following applies: at 10 µM.
Myosin-IIIa (Homo sapiens), sequence (Q8NEV4 whole entry, canonical isoform): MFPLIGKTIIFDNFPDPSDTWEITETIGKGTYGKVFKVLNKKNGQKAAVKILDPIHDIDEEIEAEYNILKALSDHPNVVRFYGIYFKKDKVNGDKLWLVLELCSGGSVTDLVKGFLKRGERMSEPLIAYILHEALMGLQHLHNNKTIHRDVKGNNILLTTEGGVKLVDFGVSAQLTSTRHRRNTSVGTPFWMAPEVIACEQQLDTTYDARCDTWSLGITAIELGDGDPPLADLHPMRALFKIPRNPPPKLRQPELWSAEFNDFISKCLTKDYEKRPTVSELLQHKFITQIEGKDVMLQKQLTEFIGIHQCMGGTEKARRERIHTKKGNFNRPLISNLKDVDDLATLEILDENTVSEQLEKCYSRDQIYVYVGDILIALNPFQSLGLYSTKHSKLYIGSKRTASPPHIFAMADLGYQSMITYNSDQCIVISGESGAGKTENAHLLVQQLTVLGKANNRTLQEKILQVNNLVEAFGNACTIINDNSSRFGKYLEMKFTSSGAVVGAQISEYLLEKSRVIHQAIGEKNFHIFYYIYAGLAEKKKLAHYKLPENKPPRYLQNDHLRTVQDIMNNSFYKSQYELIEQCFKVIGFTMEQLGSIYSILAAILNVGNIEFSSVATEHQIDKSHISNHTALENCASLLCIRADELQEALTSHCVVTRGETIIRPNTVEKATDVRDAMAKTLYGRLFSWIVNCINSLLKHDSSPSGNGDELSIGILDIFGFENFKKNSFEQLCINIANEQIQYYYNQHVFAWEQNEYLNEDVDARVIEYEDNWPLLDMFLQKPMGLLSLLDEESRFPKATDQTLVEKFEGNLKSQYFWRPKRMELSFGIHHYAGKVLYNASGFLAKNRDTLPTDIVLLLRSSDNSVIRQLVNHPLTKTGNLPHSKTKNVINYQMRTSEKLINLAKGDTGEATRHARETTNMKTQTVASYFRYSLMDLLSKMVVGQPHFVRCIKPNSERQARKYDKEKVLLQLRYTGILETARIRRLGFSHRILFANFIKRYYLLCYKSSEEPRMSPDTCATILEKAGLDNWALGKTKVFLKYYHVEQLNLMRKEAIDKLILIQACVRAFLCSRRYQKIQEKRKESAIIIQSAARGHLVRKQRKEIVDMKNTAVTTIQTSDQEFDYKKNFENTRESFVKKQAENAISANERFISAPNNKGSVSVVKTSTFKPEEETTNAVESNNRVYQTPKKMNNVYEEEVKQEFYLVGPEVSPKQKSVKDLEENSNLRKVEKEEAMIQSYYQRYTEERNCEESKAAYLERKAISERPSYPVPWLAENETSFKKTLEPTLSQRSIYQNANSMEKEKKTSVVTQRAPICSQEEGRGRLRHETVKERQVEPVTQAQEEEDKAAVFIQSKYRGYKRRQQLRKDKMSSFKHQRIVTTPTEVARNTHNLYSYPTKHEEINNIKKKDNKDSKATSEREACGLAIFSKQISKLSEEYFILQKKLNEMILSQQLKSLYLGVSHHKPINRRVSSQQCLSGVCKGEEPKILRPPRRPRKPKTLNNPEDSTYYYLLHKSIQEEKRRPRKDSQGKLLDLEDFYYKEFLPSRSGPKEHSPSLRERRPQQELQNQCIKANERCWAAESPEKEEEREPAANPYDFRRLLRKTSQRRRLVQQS
For experiment [3], the target named is Phosphatidylinositol 4,5-bisphosphate 3-kinase catalytic subunit beta isoform (Homo sapiens) (UniProt P42338). Nature of the experiment: Selectivity interaction (KinomeScan (DiscoverX)) EUB0000655a PIK3CB. The note with it: at 10 µM.
Phosphatidylinositol 4,5-bisphosphate 3-kinase catalytic subunit beta isoform (Homo sapiens), sequence (P42338 whole entry, looked up, canonical isoform): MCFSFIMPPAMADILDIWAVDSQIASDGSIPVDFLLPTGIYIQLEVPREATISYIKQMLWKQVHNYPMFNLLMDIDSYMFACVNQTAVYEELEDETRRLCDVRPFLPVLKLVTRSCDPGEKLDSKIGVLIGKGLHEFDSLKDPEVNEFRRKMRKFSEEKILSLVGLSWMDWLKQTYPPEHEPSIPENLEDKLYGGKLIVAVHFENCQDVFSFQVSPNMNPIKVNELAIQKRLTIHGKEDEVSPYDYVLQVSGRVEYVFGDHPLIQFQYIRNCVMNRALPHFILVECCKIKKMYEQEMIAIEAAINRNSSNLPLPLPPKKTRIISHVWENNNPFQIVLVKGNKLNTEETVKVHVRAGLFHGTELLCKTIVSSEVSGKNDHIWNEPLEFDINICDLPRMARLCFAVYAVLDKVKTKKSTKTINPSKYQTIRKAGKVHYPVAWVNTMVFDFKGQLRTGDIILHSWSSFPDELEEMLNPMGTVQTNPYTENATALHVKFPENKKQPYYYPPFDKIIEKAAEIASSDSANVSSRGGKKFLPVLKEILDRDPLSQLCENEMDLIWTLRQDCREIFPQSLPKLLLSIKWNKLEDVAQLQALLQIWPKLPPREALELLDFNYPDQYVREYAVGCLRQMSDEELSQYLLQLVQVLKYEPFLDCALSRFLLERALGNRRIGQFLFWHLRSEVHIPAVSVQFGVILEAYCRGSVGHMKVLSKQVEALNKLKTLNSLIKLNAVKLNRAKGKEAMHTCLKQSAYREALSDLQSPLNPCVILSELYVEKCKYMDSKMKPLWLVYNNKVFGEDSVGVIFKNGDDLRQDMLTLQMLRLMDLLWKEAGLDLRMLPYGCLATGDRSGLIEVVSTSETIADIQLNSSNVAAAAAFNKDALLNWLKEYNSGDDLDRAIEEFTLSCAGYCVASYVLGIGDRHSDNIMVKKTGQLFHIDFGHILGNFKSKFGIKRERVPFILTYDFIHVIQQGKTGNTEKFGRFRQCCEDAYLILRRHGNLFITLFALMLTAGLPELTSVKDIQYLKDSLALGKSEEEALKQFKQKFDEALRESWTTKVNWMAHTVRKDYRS
Experiment [4] concerns the target Dual specificity mitogen-activated protein kinase kinase 1 (Homo sapiens, UniProt Q02750). Nature of the experiment: Selectivity interaction (Kinase panel (Eurofins)) EUB0001564a MAP2K1. The note with it: at 1 µM.
Experiment [5] deals with SRSF protein kinase 1 (Homo sapiens, UniProt Q96SB4). Nature of the experiment: Selectivity interaction (KinomeScan (DiscoverX)) EUB0000666a SRPK1. The note with it: at 10 µM.
SRSF protein kinase 1, sequence (Q96SB4 whole entry): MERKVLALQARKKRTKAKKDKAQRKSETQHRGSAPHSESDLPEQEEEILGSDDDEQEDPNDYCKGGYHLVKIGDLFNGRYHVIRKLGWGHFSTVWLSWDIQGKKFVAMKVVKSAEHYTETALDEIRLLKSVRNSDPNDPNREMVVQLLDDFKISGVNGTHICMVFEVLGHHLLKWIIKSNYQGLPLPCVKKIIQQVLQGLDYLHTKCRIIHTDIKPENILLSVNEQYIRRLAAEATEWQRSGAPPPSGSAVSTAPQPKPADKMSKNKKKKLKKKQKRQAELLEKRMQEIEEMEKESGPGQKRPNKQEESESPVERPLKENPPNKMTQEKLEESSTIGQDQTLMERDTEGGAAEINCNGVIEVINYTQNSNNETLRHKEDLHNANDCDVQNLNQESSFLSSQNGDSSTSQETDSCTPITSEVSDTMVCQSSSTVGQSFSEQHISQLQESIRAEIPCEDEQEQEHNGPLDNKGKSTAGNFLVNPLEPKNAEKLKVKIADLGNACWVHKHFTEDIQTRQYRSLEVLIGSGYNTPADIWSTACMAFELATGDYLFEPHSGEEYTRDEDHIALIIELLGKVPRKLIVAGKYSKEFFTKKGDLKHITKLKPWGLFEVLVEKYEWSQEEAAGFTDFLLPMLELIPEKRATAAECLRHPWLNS
The target of experiment [6] is T2, Ephrin type-B receptor 1 (Homo sapiens) (UniProt P54762).
T2 sequence (whole entry): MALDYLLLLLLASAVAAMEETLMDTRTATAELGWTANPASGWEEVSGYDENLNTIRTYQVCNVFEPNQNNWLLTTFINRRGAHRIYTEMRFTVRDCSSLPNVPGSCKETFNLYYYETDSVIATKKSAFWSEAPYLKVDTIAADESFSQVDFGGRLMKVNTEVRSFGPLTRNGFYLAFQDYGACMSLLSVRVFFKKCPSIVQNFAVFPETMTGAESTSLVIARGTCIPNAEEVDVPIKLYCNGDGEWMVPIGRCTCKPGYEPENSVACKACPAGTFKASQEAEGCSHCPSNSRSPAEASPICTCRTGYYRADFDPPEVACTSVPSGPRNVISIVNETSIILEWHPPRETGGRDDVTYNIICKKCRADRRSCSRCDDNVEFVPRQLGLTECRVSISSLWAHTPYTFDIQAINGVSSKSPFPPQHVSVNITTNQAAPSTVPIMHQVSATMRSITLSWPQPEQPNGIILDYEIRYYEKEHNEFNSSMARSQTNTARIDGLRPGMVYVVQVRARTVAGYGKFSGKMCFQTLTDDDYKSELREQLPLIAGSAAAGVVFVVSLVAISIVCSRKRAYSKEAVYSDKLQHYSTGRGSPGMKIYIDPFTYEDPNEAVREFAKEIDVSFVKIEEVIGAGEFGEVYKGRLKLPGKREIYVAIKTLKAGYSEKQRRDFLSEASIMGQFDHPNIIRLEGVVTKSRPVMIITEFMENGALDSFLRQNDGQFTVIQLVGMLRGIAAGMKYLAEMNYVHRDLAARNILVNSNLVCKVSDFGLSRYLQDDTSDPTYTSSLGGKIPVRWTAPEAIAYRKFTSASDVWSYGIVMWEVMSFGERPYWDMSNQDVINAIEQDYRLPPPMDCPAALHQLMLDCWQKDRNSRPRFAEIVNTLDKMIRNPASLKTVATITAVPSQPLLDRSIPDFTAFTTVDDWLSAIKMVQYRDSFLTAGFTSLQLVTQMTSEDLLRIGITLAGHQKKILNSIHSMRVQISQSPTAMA
Nature of the experiment: Selectivity interaction (Kinase panel (Invitrogen)) EUB0000639a EPHB1. The following applies: at 200 nM.

The target of experiment [7] is T3, Inhibitor of nuclear factor kappa-B kinase subunit epsilon (Homo sapiens) (UniProt Q14164).
T3 sequence (whole entry): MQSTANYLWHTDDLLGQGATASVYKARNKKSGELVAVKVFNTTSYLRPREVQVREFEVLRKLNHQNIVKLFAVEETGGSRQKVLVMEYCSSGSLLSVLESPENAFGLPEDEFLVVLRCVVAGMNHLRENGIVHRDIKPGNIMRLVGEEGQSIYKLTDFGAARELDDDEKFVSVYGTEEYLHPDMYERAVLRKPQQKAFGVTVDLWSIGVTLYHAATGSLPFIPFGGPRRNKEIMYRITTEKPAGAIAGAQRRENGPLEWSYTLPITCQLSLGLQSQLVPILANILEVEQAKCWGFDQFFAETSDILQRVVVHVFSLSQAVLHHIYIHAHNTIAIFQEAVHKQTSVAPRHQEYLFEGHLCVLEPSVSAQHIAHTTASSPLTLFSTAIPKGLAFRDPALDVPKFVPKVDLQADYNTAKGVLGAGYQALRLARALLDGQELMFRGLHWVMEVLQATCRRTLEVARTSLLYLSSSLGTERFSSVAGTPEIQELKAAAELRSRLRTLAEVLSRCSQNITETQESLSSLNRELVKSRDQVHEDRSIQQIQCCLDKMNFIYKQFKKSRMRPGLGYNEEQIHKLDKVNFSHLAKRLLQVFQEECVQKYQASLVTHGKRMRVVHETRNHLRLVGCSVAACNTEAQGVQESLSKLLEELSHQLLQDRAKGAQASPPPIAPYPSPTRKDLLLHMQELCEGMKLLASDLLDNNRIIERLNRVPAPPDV
Nature of the experiment: Selectivity interaction (Kinase panel (Invitrogen)) EUB0000639a IKBKE. The following applies: at 200 nM.

Experiment [8] has as its target Macrophage colony-stimulating factor 1 receptor (Homo sapiens) (UniProt P07333). Put plainly: Selectivity interaction (KinomeScan (DiscoverX)) EUB0001619a CSF1R. The note with it: at 1 µM.

Dual specificity mitogen-activated protein kinase kinase 1, sequence (Q02750 whole entry): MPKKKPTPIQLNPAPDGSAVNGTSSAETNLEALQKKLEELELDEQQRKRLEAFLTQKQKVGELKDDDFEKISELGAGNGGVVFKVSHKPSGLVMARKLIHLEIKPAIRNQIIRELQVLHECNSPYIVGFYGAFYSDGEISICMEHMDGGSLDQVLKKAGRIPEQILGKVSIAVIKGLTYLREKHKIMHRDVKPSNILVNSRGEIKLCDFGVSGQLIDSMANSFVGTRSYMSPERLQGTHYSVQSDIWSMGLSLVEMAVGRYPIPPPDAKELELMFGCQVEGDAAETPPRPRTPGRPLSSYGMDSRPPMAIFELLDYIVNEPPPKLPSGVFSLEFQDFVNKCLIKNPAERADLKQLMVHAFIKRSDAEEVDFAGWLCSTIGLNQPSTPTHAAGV
Macrophage colony-stimulating factor 1 receptor (Homo sapiens), sequence (P07333 whole entry): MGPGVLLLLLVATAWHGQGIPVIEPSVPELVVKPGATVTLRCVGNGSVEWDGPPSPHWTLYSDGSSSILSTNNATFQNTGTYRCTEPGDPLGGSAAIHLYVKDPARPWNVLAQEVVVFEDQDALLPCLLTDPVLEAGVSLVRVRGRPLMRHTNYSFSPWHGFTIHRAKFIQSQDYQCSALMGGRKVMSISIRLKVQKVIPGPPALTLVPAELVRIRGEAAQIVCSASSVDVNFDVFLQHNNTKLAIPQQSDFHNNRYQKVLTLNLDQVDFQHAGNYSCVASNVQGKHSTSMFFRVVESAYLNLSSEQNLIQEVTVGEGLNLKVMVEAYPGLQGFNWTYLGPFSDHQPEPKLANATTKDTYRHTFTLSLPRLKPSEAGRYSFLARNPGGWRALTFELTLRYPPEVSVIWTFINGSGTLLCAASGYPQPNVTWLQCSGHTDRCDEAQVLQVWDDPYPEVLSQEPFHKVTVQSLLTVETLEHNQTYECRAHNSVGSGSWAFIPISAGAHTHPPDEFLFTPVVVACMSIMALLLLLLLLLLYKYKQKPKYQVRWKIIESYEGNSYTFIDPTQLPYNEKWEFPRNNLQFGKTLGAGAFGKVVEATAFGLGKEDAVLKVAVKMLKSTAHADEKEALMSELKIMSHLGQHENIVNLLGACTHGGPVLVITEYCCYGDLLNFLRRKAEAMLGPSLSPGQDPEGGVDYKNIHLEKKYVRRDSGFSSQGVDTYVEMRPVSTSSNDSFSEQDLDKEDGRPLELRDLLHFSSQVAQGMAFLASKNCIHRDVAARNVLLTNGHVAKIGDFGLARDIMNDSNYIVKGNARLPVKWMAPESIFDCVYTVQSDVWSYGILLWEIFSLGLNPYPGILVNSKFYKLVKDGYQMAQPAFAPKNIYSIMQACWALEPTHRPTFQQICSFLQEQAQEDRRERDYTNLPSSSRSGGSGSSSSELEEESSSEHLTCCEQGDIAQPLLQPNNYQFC

Compound `COc1cc(Nc2nc(C)cc(-c3cnn4nc(OC)ccc34)n2)cc(C(F)(F)F)c1` came in with a % of control in experiment [1] of 69%.

Take `CN(C)CCOc1ccc(-c2nc(-c3ccncc3)c(-c3ccc4c(c3)CC/C4=N\O)[nH]2)cc1`: the figures for the % of control in experiment [2] and in experiment [3] were 94% and 100%, respectively. For the compound `CC[C@@H](Nc1c(C#N)c(-c2ccc(-c3cccc(C)c3F)cc2)nc2cnccc12)C(=O)O` [BAY-091], in experiment [4], the % of inhibition worked out at 21.5%.

Regarding `O=C(NOC[C@H](O)CO)c1ccc(F)c(F)c1Nc1ccc(I)cc1F`, the % of control in experiment [5] turned out to be 100%. Consider `CC[C@@H]1[C@H](F)C(=O)N[C@@H]1COc1nccc2cc(C(N)=O)c(OC)cc12` [ZIMLOVISERTIB], for which the % of inhibition in experiment [6] came to 1.6%; in experiment [7] it was 2.32%. In turn, `N#Cc1cccc(-c2c[nH]c3ncnc(N4CCOCC4)c23)c1` returned a % of control in experiment [8] of 87%.
